pIC50: −log10 of the molar value. Entries after “also recorded” stand apart in the source; their conditions may differ.
Legend:
[1] = test system: B16-F10 murine melanoma cells; experiment: Screening assay for overall melanin synthesis (OD 400 nm) in α-MSH-stimulated cells; format: cell-based; details: 100 nM α-MSH, 72 h
Method: For the screening assay, B16-F10 cells were plated in 96-well plates (3 × 10^3 cells per well) and cultured for 24 h. The cells were then treated with a test drug at 1.0 μM for 60 min, and subsequently stimulated with 0.1 μM α-MSH for 72 h. Overall melanin synthesis was estimated by measuring the absorbance of each well (cells plus medium, without cell lysis) at 400 nm using a Spectrostar Nano microplate reader (BMG LABTECH GmbH, Ortenberg, Germany).

TYR = experiment: In vitro TYR catalytic activity, murine and human TYR given together (abstract); format: biochemical; details: range over human and murine TYR preparations
Method: (§1) To examine the direct effect of a drug on the catalytic activity of TYR, in vitro experiments were undertaken. Lysate of B16F10 cells stimulated with α-MSH for 24 h was used as a murine TYR preparation. Human TYR preparation was the lysate of human embryonic kidney 293 cells constitutively expressing human TYR (HEK293-TYR). […] The TYR activity assay mixture (200 μL) consisted of 100 mM sodium phosphate buffer (pH 6.8), TYR preparation (40 μg protein), a drug at various concentrations, 1.0 mM L-tyrosine, and 42 μΜ L-DOPA. For enzyme kinetic study, the concentrations of L-tyrosine plus L-DOPA were varied while their relative ratio was kept the same as the standard assay condition. […] The reactions were also performed in the absence of a TYR preparation to correct for the effects of non-enzymatic reactions. Enzyme activity was calculated as follows: activity (% control) = (C−D)/(A−B) × 100, where A and B are the absorbance changes of the control group with and without enzyme, respectively, while C and D are the absorbance changes of the test group with and without enzyme, respectively.

[2] = test system: tyrosinase (TYR) activity in B16-F10 cells; experiment: Cellular TYR activity assay (lysates of treated cells); format: cell-based, murine; details: 100 nM α-MSH, 24 h, cell lysates
Method: After B16-F10 cells were treated with drug and/or α-MSH, the TYR activity of cell extracts was determined by an indirect spectrophotometric method to monitor dopachrome formation with L-tyrosine plus L-DOPA as the substrates. Total cellular protein was extracted from the treated cells using a lysis buffer of 10 mM Tris-HCl buffer (pH 7.4) containing 120 mM NaCl, 25 mM KCl, 2.0 mM EDTA, 1.0 mM EGTA, 0.5% Triton X-100, and a protease inhibitor cocktail (Roche, Mannheim, Germany) at 4 °C, followed by centrifugation at 13,000× g for 15 min. The TYR activity assay mixture (200 μL) consisting of 100 mM sodium phosphate buffer (pH 6.8), 1.0 mM L-tyrosine, and 42 μΜ L-DOPA was incubated with 40 μg cellular protein extract at 37 °C, and changes in absorbance at 475 nm over time were measured using a Spectrostar Nano microplate reader.

B16-F10 cells = experiment: Cell viability assay (MTT); format: cell-based, murine; details: 48 h
Method: Cell viability was evaluated using 3-(4,5-dimethylthiazol-2-yl)-2,5-diphenyltetrazolium bromide (MTT). After treatment of B16-F10 cells with each drug for 48 h, cells were washed with phosphate-buffered saline (PBS) and incubated for 2 h in the culture medium containing 1 mg∙mL^−1 MTT (Amresco, Solon, OH, USA). The medium was discarded by aspiration, the formazan dye deposited inside the cells was extracted with isopropanol, and absorbance was measured at 595 nm using a Spectrostar Nano microplate reader.

murine TYR = target: T1, murine TYR (Mus musculus, UniProt P11344); experiment: In vitro TYR catalytic activity assay, lysate of α-MSH-stimulated B16F10 cells; format: biochemical
T1 construct: One is the protein extract of B16F10 cells stimulated by α-MSH and thus expresses a high amount of TYR; endogenous in cells; host or cells: B16F10 murine melanoma cells stimulated with α-MSH for 24 h; Triton X-100 lysate supernatant
T1 sequence (P11344 19-533): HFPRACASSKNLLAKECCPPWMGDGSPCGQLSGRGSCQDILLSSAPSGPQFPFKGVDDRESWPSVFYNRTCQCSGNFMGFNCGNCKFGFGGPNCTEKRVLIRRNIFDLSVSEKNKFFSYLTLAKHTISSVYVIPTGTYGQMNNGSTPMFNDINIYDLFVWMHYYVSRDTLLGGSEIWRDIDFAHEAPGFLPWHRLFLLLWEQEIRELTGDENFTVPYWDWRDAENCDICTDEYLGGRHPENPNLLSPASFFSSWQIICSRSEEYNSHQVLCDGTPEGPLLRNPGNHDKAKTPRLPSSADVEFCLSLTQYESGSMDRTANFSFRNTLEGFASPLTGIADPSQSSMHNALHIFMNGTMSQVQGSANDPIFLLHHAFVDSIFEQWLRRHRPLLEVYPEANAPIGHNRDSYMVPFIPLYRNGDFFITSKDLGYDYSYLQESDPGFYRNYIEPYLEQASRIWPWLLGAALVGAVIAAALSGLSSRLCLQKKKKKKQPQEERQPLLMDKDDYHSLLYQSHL
Method: as §1

[3] = test system: TYR, TYRP1, DCT and MITF mRNA in B16-F10 cells; experiment: qRT-PCR analysis of melanogenic gene mRNA; format: cell-based, murine; details: 100 nM α-MSH, 12 h, normalized to GAPDH
Method: After B16-F10 cells were treated with drug and/or α-MSH, cellular RNA was extracted using an RNeasy kit (Qiagen, Valencia, CA, USA) and the complementary DNA (cDNA) was synthesized by reverse transcription using a High-Capacity cDNA Archive Kit (Applied Biosystems, Foster City, CA, USA). qRT-PCR was conducted using a StepOnePlus™ Real-Time PCR System (Applied Biosystems). The reaction mixture (20 μL) comprised SYBR® Green PCR Master Mix (Applied Biosystems), 60 ng cDNA, and 2 pmol gene-specific primer sets (Macrogen, Seoul, Korea).
The reaction protocol was as follows: initial incubation at 50 °C for 2 min; DNA polymerase activation at 95 °C for 15 min; and annealing and extension at 60 °C for 1 min. In each PCR run, the melting curve was checked to confirm the homogeneity of the PCR product. The mRNA expression levels of the gene of interest were determined using the comparative Ct method, and normalized to the internal reference GAPDH [59]. In this method, Ct is defined as the number of PCR cycles required for the signal to exceed the threshold. Fold changes in the test group compared to the control group were calculated as 2^−ΔΔCt, where ΔΔCt = ΔCt(test) − ΔCt(control) = [Ct(gene, test) − Ct(reference, test)] − [Ct(gene, control) − Ct(reference, control)].

Compound: O=C(NO)c1ccc(CC(=O)N(CCO)c2ccccc2)cc1 [K8, 4-((hydroxyamino)carbonyl)-N-(2-hydroxyethyl)-N-phenyl-benzeneacetamide]
- relative melanin synthesis (OD 400 nm) ([1]; drug 1.0 μM): markedly inhibited cellular melanin synthesis
- melanin synthesis (OD 400) ([1]; drug at varied concentrations): attenuated by both drugs in a dose-dependent manner; also recorded: suppressed almost all melanin synthesis
- pIC50 (TYR): 5.82 to 5.96
- cellular TYR activity [2]: attenuated; also recorded: only partially lowered by 10 µM K8
- relative viability (B16-F10 cells; drug 1.0 μM): without reducing cell viability
- cytotoxicity (relative viability) (B16-F10 cells; drug at various concentrations): did not show toxic effects up to 10 μM
- pIC50 (murine TYR; B16F10 cell-free extract, L-tyrosine plus L-DOPA): 5.82
- inhibition type (Lineweaver–Burk plots) (murine TYR; murine TYR, varying substrate concentrations): competitive type of inhibition
- DCT mRNA level [3]: not significantly affected
- MITF mRNA expression [3]: not significantly affected
- TYR mRNA level [3]: not significantly affected
- TYRP1 mRNA level [3]: not significantly affected

— paper PMC7370187, “Screening of an Epigenetic Drug Library Identifies 4-((hydroxyamino)carbonyl)-N-(2-hydroxyethyl)-N-Phenyl-Benzeneacetamide that Reduces Melanin Synthesis by Inhibiting Tyrosinase Activity Independently of Epigenetic Mechanisms” (International Journal of Molecular Sciences, 2020)
